Molecular target: BCL2 (Homo sapiens (Human), UniProt P10415)
Assay: Molecular level activity test of anti-apoptotic protein BCL2 (HTRF, binding to Bim peptide)
Settings: HTRF, binding of BCL2 to Bim peptide; read-out: BCL2 nM (inhibitory activity, IC50)
How it was run: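 Competition binding format: recombinant His-BCL2 and a biotin-Bim peptide are incubated with compound for 1 h, followed by 4 h at room temperature with HTRF detection antibodies.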

Chain of BCL2 (P10415 whole entry): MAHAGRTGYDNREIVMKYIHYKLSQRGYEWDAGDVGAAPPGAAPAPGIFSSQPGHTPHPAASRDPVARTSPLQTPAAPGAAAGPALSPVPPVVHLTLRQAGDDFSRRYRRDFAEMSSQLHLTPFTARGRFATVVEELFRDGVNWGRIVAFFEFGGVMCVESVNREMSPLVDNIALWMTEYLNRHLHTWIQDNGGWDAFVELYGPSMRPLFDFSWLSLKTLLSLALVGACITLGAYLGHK

IC50 [µM] | Structure (SMILES)
< 0.01 | COc1ccc(CN2CCN(C3CC4(CCN(c5cc(Oc6cnc7[nH]cc(F)c7c6)c(C(=O)NS(=O)(=O)c6ccc(NCC7(F)CCN(C(C)C)CC7)c([N+](=O)[O-])c6)cn5)CC4)C3)C(c3ccccc3C(C)C)C2)cc1 (stereo not drawn) [compound 061, N-((4-(((4-fluoro-1-isopropylpiperid-4-yl)methyl)amino)-3-nitrophenyl)sulfonyl)-4-((3-fluoro-1H-pyrrolo[2,3-b]pyrid-5-yl)oxy)-6-(2-(2-(2-isopropylphenyl)-4-(4-methoxybenzyl)piperazin-1-yl)-7-azaspiro[3.5]non-7-yl) nicotinamide]
< 0.01 | COc1ccc(CN2CCN(C3CC4(CCN(c5cc(Oc6cnc7[nH]ccc7c6)c(C(=O)NS(=O)(=O)c6ccc(NCC7CCOCC7)c([N+](=O)[O-])c6)cc5F)CC4)C3)C(c3ccccc3C(C)C)C2)cc1 (stereo not drawn) [compound 064, 2-((1H-pyrrolo[2,3-b]pyrid-5-yl)oxy)-5-fluoro-4-(2-(2-(2-isopropylphenyl)-4-(4-methoxybenzyl)piperazin-1-yl)-7-azaspiro[3.5]non-7-yl)-N-((3-nitro-4-(((tetrahydro-2H-pyran-4-yl)methyl)amino)phenyl)sulfonyl)benzamide]
< 0.01 | COc1ccc(CN2CCN(C3CC4(CCN(c5cc(Oc6cnc7[nH]ccc7c6)c(C(=O)NS(=O)(=O)c6ccc(NCC7(F)CCOCC7)c([N+](=O)[O-])c6)cn5)CC4)C3)C(c3ccccc3C(C)C)C2)cc1 (stereo not drawn) [compound 065, 4-((1H-pyrrolo[2,3-b]pyrid-5-yl)oxy)-N-((4-(((4-fluorotetrahydro-2H-pyran-4-yl)methyl)amino)-3-nitrophenyl)sulfonyl)-6-(2-(2-(2-isopropylphenyl)-4-(4-methoxybenzyl)piperazin-1-yl)-7-azaspiro[3.5]non-7-yl) nicotinamide]
< 0.01 | COc1ccc(CN2CCN(C3CC4(CCN(c5cc(Oc6cnc7[nH]ccc7c6)c(C(=O)NS(=O)(=O)c6cc([N+](=O)[O-])c(NC[C@H]7CC[C@](C)(O)CC7)c7[nH]cnc67)cn5)CC4)C3)C(c3ccccc3C(C)C)C2)cc1 (stereo partly drawn) [compound 067, 4-((1H-pyrrolo[2,3-b]pyrid-5-yl)oxy)-N-((7-((((1r,4r)-4-hydroxy-4-methylcyclohexyl)methyl)amino)-6-nitro-1H-benzo[d]imidazol-4-yl)sulfonyl)-6-(2-(2-(2-isopropylphenyl)-4-(4-methoxybenzyl)piperazin-1-yl)-7-azaspiro[3.5]non-7-yl) nicotinamide]
< 0.01 | COc1ccc(CN2CCN(C3CC4(C3)CN(c3cc(Oc5cnc6[nH]ccc6c5)c(C(=O)NS(=O)(=O)c5cc([N+](=O)[O-])c(NC[C@H]6CC[C@](C)(O)CC6)c6[nH]cnc56)cn3)C4)C(c3ccccc3C(C)C)C2)cc1 (stereo partly drawn) [compound 068, 4-((1H-pyrrolo[2,3-b]pyrid-5-yl)oxy)-N-((7-((((1r,4r)-4-hydroxy-4-methylcyclohexyl)methyl)amino)-6-nitro-1H-benzo[d]imidazol-4-yl)sulfonyl)-6-(6-(2-(2-isopropylphenyl)-4-(4-methoxybenzyl)piperazin-1-yl)-2-azaspiro[3.3]hept-2-yl) nicotinamide]
< 0.01 | COc1ccc(CN2CCN(C3CC4(CCN(c5cc(Oc6cnc7[nH]ccc7c6)c(C(=O)NS(=O)(=O)c6cc([N+](=O)[O-])c(NCC7(F)CCN(C(C)C)CC7)c7[nH]cnc67)cn5)CC4)C3)C(c3ccccc3C(C)C)C2)cc1 (stereo not drawn) [compound 069, 4-((1H-pyrrolo[2,3-b]pyrid-5-yl)oxy)-N-((7-(((4-fluoro-1-isopropylpiperid-4-yl)methyl)amino)-6-nitro-1H-benzo[d]imidazol-4-yl)sulfonyl)-6-(2-(2-(2-isopropylphenyl)-4-(4-methoxybenzyl)piperazin-1-yl)-7-azaspiro[3.5]non-7-yl) nicotinamide]

Second part, the compound before the results:

Structure (SMILES) | IC50 [µM]
CC(C)c1ccccc1C1CN(C2CCOCC2)CCN1C1CC2(C1)CN(c1cc(Oc3cnc4[nH]ccc4c3)c(C(=O)NS(=O)(=O)c3ccc(NC[C@H]4CC[C@](C)(O)CC4)c([N+](=O)[O-])c3)cn1)C2 (stereo partly drawn) [compound 052, 4-((1H-pyrrolo[2,3-b]pyrid-5-yl)oxy)-N-((4-((((1r,4r)-4-hydroxy-4-methylcyclohexyl)methyl)amino)-3-nitrophenyl)sulfonyl)-6-(6-(2-(2-isopropylphenyl)-4-(tetrahydro-2H-pyran-4-yl)piperazin-1-yl)-2-azaspiro[3.3]hept-2-yl) nicotinamide] | < 0.01
COc1ccc(CN2CCN(C3CC4(C3)CN(c3cc(Oc5cnc6[nH]ccc6c5)c(C(=O)NS(=O)(=O)c5ccc(NCC6(F)CCN(C7COC7)CC6)c([N+](=O)[O-])c5)cn3)C4)C(c3ccccc3C(C)C)C2)cc1 (stereo not drawn) [compound 054] | < 0.01
COc1ccc(CN2CCN(C3CC4(CCN(c5cc(Oc6cnc7[nH]ccc7c6)c(C(=O)NS(=O)(=O)c6ccc(NC[C@H]7CC[C@](C)(O)CC7)c([N+](=O)[O-])c6)cc5F)CC4)C3)C(c3ccccc3C(C)C)C2)cc1 (stereo partly drawn) [compound 055, 2-((1H-pyrrolo[2,3-b]pyrid-5-yl)oxy)-5-fluoro-N-((4-((((1r,4r)-4-hydroxy-4-methylcyclohexyl)methyl)amino)-3-nitrophenyl)sulfonyl)-4-(2-(2-(2-isopropylphenyl)-4-(4-methoxybenzyl)piperazin-1-yl)-7-azaspiro[3.5]non-7-yl)benzamide] | < 0.01
COc1ccc(CN2CCN(C3CC4(C3)CN(c3cc(Oc5cnc6[nH]ccc6c5)c(C(=O)NS(=O)(=O)c5ccc(NC[C@H]6CC[C@](C)(O)CC6)c([N+](=O)[O-])c5)cc3F)C4)C(c3ccccc3C(C)C)C2)cc1 (stereo partly drawn) [compound 056, 2-((1H-pyrrolo[2,3-b]pyrid-5-yl)oxy)-5-fluoro-N-((4-((((1r,4r)-4-hydroxy-4-methylcyclohexyl)methyl)amino)-3-nitrophenyl)sulfonyl)-4-(6-(2-(2-isopropylphenyl)-4-(4-methoxybenzyl)piperazin-1-yl)-2-azaspiro[3.3]hept-2-yl)benzamide] | < 0.01
CC(C)c1ccccc1C1CN(C2CCOCC2)CCN1C1CC2(CCN(c3cc(Oc4cnc5[nH]cc(F)c5c4)c(C(=O)NS(=O)(=O)c4ccc(NC[C@H]5CC[C@](C)(O)CC5)c([N+](=O)[O-])c4)cn3)CC2)C1 (stereo partly drawn) [compound 059, 4-((3-fluoro-1H-pyrrolo[2,3-b]pyrid-5-yl)oxy)-N-((4-((((1r,4r)-4-hydroxy-4-methylcyclohexyl)methyl)amino)-3-nitrophenyl)sulfonyl)-6-(2-(2-(2-isopropylphenyl)-4-(tetrahydro-2H-pyran-4-yl)piperazin-1-yl)-7-azaspiro[3.5]non-7-yl) nicotinamide] | < 0.01
COc1ccc(CN2CCN(C3CC4(CCN(c5cc(Oc6cnc7[nH]cc(F)c7c6)c(C(=O)NS(=O)(=O)c6ccc(NC[C@H]7CC[C@](C)(O)CC7)c([N+](=O)[O-])c6)cc5F)CC4)C3)C(c3ccccc3C(C)C)C2)cc1 (stereo partly drawn) [compound 060, 5-fluoro-2-((3-fluoro-1H-pyrrolo[2,3-b]pyrid-5-yl)oxy)-N-((4-((((1r,4r)-4-hydroxy-4-methylcyclohexyl)methyl)amino)-3-nitrophenyl)sulfonyl)-4-(2-(2-(2-isopropylphenyl)-4-(4-methoxybenzyl)piperazin-1-yl)-7-azaspiro[3.5]non-7-yl)benzamide] | < 0.01

— patent publication US20250034135A1, “ANTI-APOPTOTIC PROTEIN BCL-2 INHIBITOR, PHARMACEUTICAL COMPOSITION AND USES THEREOF” (HANGZHOU HEALZEN THERAPEUTICS CO., LTD., priority 2021, published 2025)
